PubChem BioAssay AID1963963 (Molecular Pharmacology Branch, DTP, NCI, 2024)
“And” between values parts separate entries of the source, which are not always exact repeats. Equal values may be shown once.

Tested on: 958667-338-R-J2-PDC tumor spheroids viability
Assay: Anticancer human tumor 958667-338-R-J2-PDC patient-derived colon adenocarcinoma cell line growth inhibition [PI3K]
Details: spheroids with HUVEC and MSC; for viability, T/C: stronger effect = lower value
Summary of the method: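 Combination activity was assessed by viability in multicellular tumor spheroids carrying HUVEC and MSC components. Agents were tested with PI3K inhibitors from a Cmax-based top dose (or 10 microM) downward in half-log increments.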

[1] = curve of first compound, second compound 0.0316 µM
[2] = curve of first compound, second compound 0.1 µM
[3] = curve of first compound, second compound 0.316 µM
[4] = curve of first compound, second compound 1 µM
[5] = curve of first compound, second compound 3.16 µM
[6] = curve of first compound, second compound 10 µM
[7] = second compound 0.0316 µM, first compound 0.0316 µM
[8] = second compound 0.0316 µM, first compound 0.1 µM
[9] = second compound 0.1 µM, first compound 0.0316 µM
[10] = second compound 0.1 µM, first compound 0.1 µM
[11] = second compound 0.316 µM, first compound 0.0316 µM
[12] = second compound 0.316 µM, first compound 0.1 µM
[13] = second compound 1 µM, first compound 0.0316 µM
[14] = second compound 1 µM, first compound 0.1 µM
[15] = second compound 3.16 µM, first compound 0.0316 µM
[16] = second compound 3.16 µM, first compound 0.1 µM
[17] = second compound 10 µM, first compound 0.0316 µM
[18] = second compound 10 µM, first compound 0.1 µM
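Further: spheroids exposed to compounds for seven days before readout.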

CC(C)n1nc(-c2ccc3oc(N)nc3c2)c2c(N)ncnc21 + CC(Nc1ncnc2nc[nH]c12)c1cc2cccc(Cl)c2c(=O)n1-c1ccccc1
IC50 [1]: 74.9 nM | IC50 [2]: 71.7 nM | IC50 [3]: 77.9 nM | IC50 [4]: 82.9 nM | IC50 [5]: 59.3 nM | IC50 [6]: 61.4 nM | viability, T/C (second compound 0.0316 µM, first compound 0.000316 µM): 96.8% | viability, T/C (second compound 0.0316 µM, first compound 0.001 µM): 95.3% | viability, T/C (second compound 0.0316 µM, first compound 0.00316 µM): 98.5% | viability, T/C (second compound 0.0316 µM, first compound 0.01 µM): 112% | viability, T/C [7]: 73.6% | viability, T/C [8]: 42.1% | viability, T/C (second compound 0.1 µM, first compound 0.000316 µM): 127% | viability, T/C (second compound 0.1 µM, first compound 0.001 µM): 101% | viability, T/C (second compound 0.1 µM, first compound 0.00316 µM): 107% | viability, T/C (second compound 0.1 µM, first compound 0.01 µM): 92.8% | viability, T/C [9]: 74.7% | viability, T/C [10]: 39.4% | viability, T/C (second compound 0.316 µM, first compound 0.000316 µM): 95.2% | viability, T/C (second compound 0.316 µM, first compound 0.001 µM): 84.7% | viability, T/C (second compound 0.316 µM, first compound 0.00316 µM): 90.8% | viability, T/C (second compound 0.316 µM, first compound 0.01 µM): 98.9% | viability, T/C [11]: 69.2% | viability, T/C [12]: 44.7% | viability, T/C (second compound 1 µM, first compound 0.000316 µM): 95.2% | viability, T/C (second compound 1 µM, first compound 0.001 µM): 92.8% | viability, T/C (second compound 1 µM, first compound 0.00316 µM): 82.4% | viability, T/C (second compound 1 µM, first compound 0.01 µM): 100% | viability, T/C [13]: 73.9% | viability, T/C [14]: 45.4% | viability, T/C (second compound 3.16 µM, first compound 0.000316 µM): 86% | viability, T/C (second compound 3.16 µM, first compound 0.001 µM): 91.4% | viability, T/C (second compound 3.16 µM, first compound 0.00316 µM): 98.5% | viability, T/C (second compound 3.16 µM, first compound 0.01 µM): 89.3% | viability, T/C [15]: 60.7% | viability, T/C [16]: 41.2% | viability, T/C (second compound 10 µM, first compound 0.000316 µM): 100% | viability, T/C (second compound 10 µM, first compound 0.001 µM): 75.1% | viability, T/C (second compound 10 µM, first compound 0.00316 µM): 70.4% | viability, T/C (second compound 10 µM, first compound 0.01 µM): 83.5% | viability, T/C [17]: 71.8% | viability, T/C [18]: 33.7%

CC1(C)CCC(CN2CCN(c3ccc(C(=O)NS(=O)(=O)c4ccc(NCC5CCOCC5)c([N+](=O)[O-])c4)c(Oc4cnc5[nH]ccc5c4)c3)CC2)=C(c2ccc(Cl)cc2)C1
viability, T/C (compound 0.316 µM): 106% [middle of 4 runs] | viability, T/C (compound 1 µM): 109% (2×) and 87% and 112% | viability, T/C (compound 3.16 µM): 98.7% [middle of 4 runs] | IC50 (curve of compound): > 10000 nM and 6880 nM and 6970 nM

CC(C)NCC(C(=O)N1CCN(c2ncnc3c2C(C)CC3O)CC1)c1ccc(Cl)cc1 (stereo not drawn) + Cc1nc(NC(=O)N2CCCC2C(N)=O)sc1-c1ccnc(C(C)(C)C(F)(F)F)c1
IC50 [1]: > 10000 nM | IC50 [2]: > 10000 nM | IC50 [3]: > 10000 nM | IC50 [4]: > 10000 nM | IC50 [5]: 8170 nM | IC50 [6]: 2360 nM | viability, T/C [7]: 108% | viability, T/C [8]: 99.3% | viability, T/C (second compound 0.0316 µM, first compound 0.316 µM): 96.3% | viability, T/C (second compound 0.0316 µM, first compound 1 µM): 104% | viability, T/C (second compound 0.0316 µM, first compound 3.16 µM): 91.8% | viability, T/C (second compound 0.0316 µM, first compound 10 µM): 64.6% | viability, T/C [9]: 99.4% | viability, T/C [10]: 110% | viability, T/C (second compound 0.1 µM, first compound 0.316 µM): 95.6% | viability, T/C (second compound 0.1 µM, first compound 1 µM): 102% | viability, T/C (second compound 0.1 µM, first compound 3.16 µM): 102% | viability, T/C (second compound 0.1 µM, first compound 10 µM): 60.7% | viability, T/C [11]: 90.7% | viability, T/C [12]: 103% | viability, T/C (second compound 0.316 µM, first compound 0.316 µM): 104% | viability, T/C (second compound 0.316 µM, first compound 1 µM): 85.2% | viability, T/C (second compound 0.316 µM, first compound 3.16 µM): 86.9% | viability, T/C (second compound 0.316 µM, first compound 10 µM): 62.1% | viability, T/C [13]: 107% | viability, T/C [14]: 74.2% | viability, T/C (second compound 1 µM, first compound 0.316 µM): 87.4% | viability, T/C (second compound 1 µM, first compound 1 µM): 75.5% | viability, T/C (second compound 1 µM, first compound 3.16 µM): 89.9% | viability, T/C (second compound 1 µM, first compound 10 µM): 73.5% | viability, T/C [15]: 74.7% | viability, T/C [16]: 68.3% | viability, T/C (second compound 3.16 µM, first compound 0.316 µM): 71.8% | viability, T/C (second compound 3.16 µM, first compound 1 µM): 76.7% | viability, T/C (second compound 3.16 µM, first compound 3.16 µM): 68.5% | viability, T/C (second compound 3.16 µM, first compound 10 µM): 45.9% | viability, T/C [17]: 57.8% | viability, T/C [18]: 66.5% | viability, T/C (second compound 10 µM, first compound 0.316 µM): 57.2% | viability, T/C (second compound 10 µM, first compound 1 µM): 62.5% | viability, T/C (second compound 10 µM, first compound 3.16 µM): 46.2% | viability, T/C (second compound 10 µM, first compound 10 µM): 35.9%
